Source: patent US7652064B2, “AMPA receptor potentiators” (Eli Lilly and Company, priority 2005, dated 2010)

Target: T1, human iGluR4 (Homo sapiens, UniProt P48058)
T1 construct: expressed in transfected cells; host or cells: HEK293
Assay: Whole-cell voltage clamp electrophysiology of AMPA receptor potentiation in HEK293 cells stably expressing human iGluR4
Assay type: cell-based
Details: voltage-clamped at −60 mV, 1 mM glutamate, fit to the Hill equation, read-out: activity (EC50, potentiation of current evoked by 1 mM glutamate)
Excerpt: HEK293 cells stably expressing human iGluR4 (obtained as described in European Patent Application Publication No. EP-A1-0583917) are used in the electrophysiological characterization of AMPA receptor potentiators. The extracellular recording solution contains (in mM): 140 NaCl, 5 KCl, 10 HEPES, 1 MgCl2, 2 CaCl2, 10 glucose, pH=7.4 with NaOH, 295 mOsm kg-1. The intracellular recording solution contains (in mM): 140 CsCl, 1 MgCl2, 10 HEPES, (N-[2-hydroxyethyl]piperazine-N1-[2-ethanesulfonic acid]) 10 EGTA (ethylene-bis(oxyethylene-nitrilo)tetraacetic acid), pH=7.2 with CsOH, 295 mOsm kg-1. With these solutions, recording pipettes have a resistance of 2-3 MΩ. […] Responses to 1 mM glutamate are then determined in the presence of test compound. […]
In order to determine the potency of test compounds, the concentration of the test compound, both in the bathing solution and co-applied with glutamate, is increased in half log units until the maximum effect was seen. […] Reversibility of test compound activity is determined by assessing control glutamate 1 mM responses. Once the control responses to the glutamate challenge are re-established, the potentiation of these responses by 100 μM cyclothiazide is determined by its inclusion in both the bathing solution and the glutamate-containing solution. In this manner, the efficacy of the test compound relative to that of cyclothiazide can be determined. […]

T1 sequence (P48058 21-902): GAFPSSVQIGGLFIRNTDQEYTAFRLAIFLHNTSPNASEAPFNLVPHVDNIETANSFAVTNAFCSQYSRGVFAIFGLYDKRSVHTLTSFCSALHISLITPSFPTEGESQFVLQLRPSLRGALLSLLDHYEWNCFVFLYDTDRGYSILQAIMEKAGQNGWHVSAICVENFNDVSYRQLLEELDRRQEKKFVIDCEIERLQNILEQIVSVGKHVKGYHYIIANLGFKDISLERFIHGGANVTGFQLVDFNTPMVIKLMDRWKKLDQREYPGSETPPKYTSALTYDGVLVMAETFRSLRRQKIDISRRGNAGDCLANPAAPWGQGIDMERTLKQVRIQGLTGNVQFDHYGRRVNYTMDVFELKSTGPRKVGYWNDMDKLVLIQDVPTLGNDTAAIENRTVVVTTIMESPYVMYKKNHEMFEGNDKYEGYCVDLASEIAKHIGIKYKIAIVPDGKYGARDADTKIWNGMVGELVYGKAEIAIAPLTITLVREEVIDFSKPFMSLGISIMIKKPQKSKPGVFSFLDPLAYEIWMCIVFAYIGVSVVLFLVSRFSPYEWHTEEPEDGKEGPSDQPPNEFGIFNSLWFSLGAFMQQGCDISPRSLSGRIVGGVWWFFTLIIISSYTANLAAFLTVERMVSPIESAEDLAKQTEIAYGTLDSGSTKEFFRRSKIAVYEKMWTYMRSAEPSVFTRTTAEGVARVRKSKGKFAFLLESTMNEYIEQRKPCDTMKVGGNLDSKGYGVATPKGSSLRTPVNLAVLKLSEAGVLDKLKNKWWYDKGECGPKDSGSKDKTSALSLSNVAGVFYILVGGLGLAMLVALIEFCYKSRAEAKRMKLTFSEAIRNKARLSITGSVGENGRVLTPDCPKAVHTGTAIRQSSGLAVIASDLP

`CCOc1cc(C(=O)O)ccc1-c1ccc(-c2sccc2NS(=O)(=O)C(C)C)cc1` [Example 1, 2-Ethoxy-4′-[3-(propane-2-sulfonylamino)-thiophen-2-yl]-biphenyl-4-carboxylic acid] gave an EC50 of 145 nM.
